The supplement of paper PMC10949913
Several values for one entry are separate records, joined by “and”; a condition that tells them apart may be missing. Equal entries are not always repeated.

How the values were obtained:
[1] = system: CU-ACC1; assay: area under concentration-response curve (viability) (AUC (a.u.)); higher = less active; settings: 48 h
In short: (§1)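 Three adrenocortical carcinoma cell lines were seeded at 500–1,000 cells/well in 5 µL medium in 1,536-well plates. 23 nL of each MIPE 5.0 library compound was added at 11 concentrations. After 48 h (per the protocol name), CellTiter-Glo was added for 15 minutes at room temperature and luminescence was read. Signals were normalised per plate to vehicle and empty-well controls. AC50 and area under the curve came from fitted concentration-response curves, keeping only inhibitory or non-responding curve classes.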

[2] = system: NCI-H295R; assay: as above; settings: 48 h
In short: as §1

CN[C@@H](C)[C@H]1[C@H](O)C[C@@]2(C)[C@@H]3CC[C@H]4C(C)(C)[C@@H](NC)CC[C@@]45C[C@@]35CC[C@]12C
area under concentration-response curve [1]: 546
area under concentration-response curve [2]: 613

COC1=C(OC)C=C2C(=C1)C(=O)N(CCC[N]3C=CN=C3)\C4=C2\C(=O)C5=CC6=C(OCO6)C=C45
area under concentration-response curve [1]: 468
area under concentration-response curve [2]: 517

O=C(O)C1(Cc2cccc(Nc3nccs3)n2)CCC(Oc2cccc(Cl)c2F)CC1 (stereo not drawn)
area under concentration-response curve [1]: 511
area under concentration-response curve [2]: 510

CCC(C)N(C)C(=O)c1cc2ccccc2c(-c2ccccc2Cl)n1 (stereo not drawn)
area under concentration-response curve [1]: 492
area under concentration-response curve [2]: 337

O=C(O)CC/C=C\CC[C@@H]1[C@@H](N2CCCCC2)[C@@H](O)C[C@@H]1OCc1ccc(-c2ccccc2)cc1
area under concentration-response curve [1]: 389
area under concentration-response curve [2]: 424

CC(C)(S)[C@@H](N)C(=O)O
area under concentration-response curve [1]: 637
area under concentration-response curve [2]: 711

O=C(Nc1cnccc1Cl)N1CCN(Cc2ccc3c(c2)OC(F)(F)O3)CC1
area under concentration-response curve [1]: 330
area under concentration-response curve [2]: 414

CC(=O)CC(C1=CC=CC=C1)C/2=C(O)/C3=CC=CC=C3OC2=O (stereo not drawn)
area under concentration-response curve [1]: 491
area under concentration-response curve [2]: 533

CCNC(=O)Nc1ncc(-c2cc(-c3c(C)cc(OC)cc3C)nc(-c3cnccn3)n2)s1
area under concentration-response curve [1]: 482
area under concentration-response curve [2]: 520

CC1(C)O[C@@H]2C[C@H]3[C@@H]4CCC/5=C/C(=O)/C=C\[C@]5(C)[C@H]4[C@@H](O)C[C@]3(C)[C@@]2(O1)C(=O)CO
area under concentration-response curve [1]: 469
area under concentration-response curve [2]: 524

c1ccc2c(Oc3nc(Nc4ccc(N5CCOCC5)cc4)c4ncn(C5CCCCC5)c4n3)cccc2c1
area under concentration-response curve [1]: 481
area under concentration-response curve [2]: 535

CC(C)Nc1cc(C(F)(F)F)cc2nc(NC(=O)c3cccnc3)nn12
area under concentration-response curve [1]: 373
area under concentration-response curve [2]: 412

C/C(O)=C(\C#N)C(=O)Nc1cc(Br)ccc1Br
area under concentration-response curve [1]: 446
area under concentration-response curve [2]: 456

C/N=c1\ncc2cc(-c3cc(N/C(O)=N/CCC(C)(C)C)c(F)cc3C)c(C)nc2[nH]1
area under concentration-response curve [1]: 454
area under concentration-response curve [2]: 474

CCCCCC[C@H]1C(=O)O[C@H](C)[C@H](NC(=O)c2cccc(NC=O)c2O)C(=O)O[C@@H](C)[C@@H]1OC(=O)CC(C)C
area under concentration-response curve [1]: 491
area under concentration-response curve [2]: 467

CCC[S+](=O)([O-])Nc1ccc(F)c(C(=O)c2c[nH]c3ncc(Cl)cc23)c1F
area under concentration-response curve [1]: 475
area under concentration-response curve [2]: 493

CN1C(=O)N[C@H](Cc2c[nH]c3c(Cl)cccc23)C1=O
area under concentration-response curve [1]: 425
area under concentration-response curve [2]: 445

COC1=CC=C2C(=CC=NC2=C1)OC3=CC=C(NC(=O)\C4=C(C)\N(CC(C)(C)O)N(C4=O)C5=CC=CC=C5)C=C3F
area under concentration-response curve [1]: 398
area under concentration-response curve [2]: 459

COc1nc(N)nc2c1ncn2C1OC(CO)C(O)C1O (stereo not drawn)
area under concentration-response curve [1]: 461
area under concentration-response curve [2]: 469

COc1ccc2nc3[nH]nc(C)c3c(NCCOCCO)c2c1
area under concentration-response curve [1]: 545
area under concentration-response curve [2]: 574

CCN(C1CCOCC1)C2=C(C)C(=CC(=C2)C3=CC=C(CN4CCOCC4)C=C3)C(=O)NC\C5=C(C)\C=C(C)/NC5=O
area under concentration-response curve [1]: 262
area under concentration-response curve [2]: 249

CC(C)CC(N(C)C)C1(c2ccc(Cl)cc2)CCC1 (stereo not drawn)
area under concentration-response curve [1]: 291
area under concentration-response curve [2]: 349

C[C@@]1(c2ncncc2F)NC(=O)c2cc(-c3cn[nH]c3)ccc21
area under concentration-response curve [1]: 528
area under concentration-response curve [2]: 546

CC1=CC=C(C=C1)N(C\C2=N\CCN2)C3=CC=CC(=C3)O
area under concentration-response curve [1]: 479
area under concentration-response curve [2]: 518

COC1=CC=CC(=C1/C2=N/CC3=C(N=C(NC4=CC(=C(C=C4)C(O)=O)OC)N=C3)C5=CC=C(Cl)C=C25)F
area under concentration-response curve [1]: 441
area under concentration-response curve [2]: 469

C1C\N=C(\NC(C2CC2)C3CC3)O1
area under concentration-response curve [1]: 542
area under concentration-response curve [2]: 591

COc1ccc(C2(C#N)CCC(C(=O)O)CC2)cc1OC1CCCC1 (stereo not drawn)
area under concentration-response curve [1]: 548
area under concentration-response curve [2]: 606

CN1C(=O)C[C@H](C(=O)N[C@@H](Cc2cnc[nH]2)C(=O)N2CCC[C@H]2C(N)=O)NC1=O
area under concentration-response curve [1]: 537
area under concentration-response curve [2]: 589

COC1=C(OC)C=C2C(=C1)C(=O)N(CCCN3CCOCC3)\C4=C2\C(=O)C5=C4C=C6OCOC6=C5
area under concentration-response curve [1]: 400
area under concentration-response curve [2]: 463

C[C@@H]1C(=O)O[C@H]2CC34[C@H]5C[C@@H](C(C)(C)C)C36[C@@H](OC(=O)[C@@H]6O)O[C@@]4(C(=O)O5)[C@]21O (stereo partly drawn)
area under concentration-response curve [2]: 21.9

C/C=C(/C(=C/C)c1ccc(O)cc1)c1ccc(O)cc1
area under concentration-response curve [2]: 366

OC[C@H]1O[C@H]([C@H](O)[C@@H](O)[C@@H]1O)C2=C(O)C=CC3=C2O/C=C(C3=O)/C4=CC=C(O)C=C4
area under concentration-response curve [2]: 540

CN(C)Cc1cccc(N/C(=C2\C(=O)Nc3cc(C(=O)N(C)C)ccc32)c2ccccc2)c1
area under concentration-response curve [2]: 558

OC[C@H]1O[C@@H](Oc2cc(O)cc(/C=C/c3ccc(O)cc3)c2)[C@H](O)[C@@H](O)[C@@H]1O
area under concentration-response curve [2]: 579

O=C(O)CCCCCC(=O)NN=C1CCCC1
area under concentration-response curve [2]: 548

O=c1[nH]c2ccccc2n1CCCN1CCC(n2c(=O)[nH]c3cc(Cl)ccc32)CC1
area under concentration-response curve [2]: 539

Clc1ccc(Nc2nnc(Cc3ccncc3)c3ccccc23)cc1
area under concentration-response curve [2]: 295

Cc1c(C)n(Cc2ccc(-c3ccccc3C(=O)O)cc2)c2ccc(C(=O)N[C@@H](C)c3ccc([N+](=O)[O-])cc3)cc12
area under concentration-response curve [2]: 402

CCN1CCN(C(=O)N[C@@H](C(=O)N[C@H]2[C@H]3SC\C(=C(/N3C2=O)C(O)=O)CSC4=NN=N[N]4C)C5=CC=C(O)C=C5)C(=O)C1=O
area under concentration-response curve [2]: 269

CCC[S+](=O)([O-])Nc1ccc(F)c(C(=O)c2c[nH]c3ncc(-c4ccc(Cl)cc4)cc23)c1F
area under concentration-response curve [2]: 556

CNC(=O)[C@H]1O[C@@H](n2cnc3c(NCc4cccc(I)c4)nc(Cl)nc32)[C@H](O)[C@@H]1O
area under concentration-response curve [2]: 366

COc1ccc(N(C(=O)Oc2c(C)cccc2C)c2ccnc(Nc3ccc(N4CCN(C)CC4)cc3)n2)c(OC)c1
area under concentration-response curve [2]: 545

OC1=CC=C(C=C1)\C2=C\OC3=C(C=CC(=C3)O)C2=O
area under concentration-response curve [2]: 565

O=C(O)CCCc1c[nH]c2ccccc12
area under concentration-response curve [2]: 400

CC\12CCC(=O)\C=C1CCC3C2CCC4(C)C3CCC4(O)C#C (stereo not drawn)
area under concentration-response curve [2]: 440

O=C(O)CCCCC(CCSCc1ccccc1)SCc1ccccc1 (stereo not drawn)
area under concentration-response curve [2]: 589

CCN(CCO)CCCC(C)Nc1ccnc2cc(Cl)ccc12 (stereo not drawn)
area under concentration-response curve [2]: 368

O=P1(NCCCl)OCCCN1CCCl (stereo not drawn)
area under concentration-response curve [2]: 553

CCCN[C@H]1CCc2nc(N)sc2C1
area under concentration-response curve [2]: 566

CSC1=CC(=CC=C1)NC2=NC3=C(C=N2)/C=C(C(=O)N3C)/C4=C(Cl)C=CC=C4Cl
area under concentration-response curve [2]: 495

OC1=CC(=C(C=C1)\C2=C(O)\C(=O)C3=C(O2)C=C(O)C=C3O)O
area under concentration-response curve [2]: 591

COc1cc2c(cc1O)CC[C@@H]1[C@@H]2CC[C@]2(C)[C@@H](O)CC[C@@H]12
area under concentration-response curve [2]: 383

O=[S+]([O-])(CC1CS1)c1ccc(Oc2ccccc2)cc1 (stereo not drawn)
area under concentration-response curve [2]: 542

NC(=O)c1ncn([C@@H]2O[C@H](CO)[C@@H](O)[C@H]2O)c1O
area under concentration-response curve [2]: 401 and 302

CCOC(=O)C(C#N)C\1C2=CC(=CC=C2O\C(=C1C(=O)OCC)N)Br (stereo not drawn)
area under concentration-response curve [2]: 569

C=CC(=O)N1CCC[C@@H](n2nc(-c3ccc(Oc4ccccc4)cc3)c3c(N)ncnc32)C1
area under concentration-response curve [2]: 459

CNCc1ccc(-c2cc(-c3nc(-c4ccc([S+](=O)([O-])C(C)C)cc4)cnc3N)on2)cc1
area under concentration-response curve [2]: 413

CCOC(=O)c1ncn2c1CN(C)C(=O)c1cc(F)ccc1-2
area under concentration-response curve [2]: 532

CC(C)[S+](=O)([O-])c1ccc2nccc(Nc3ccc4scnc4c3)c2c1
area under concentration-response curve [2]: 491
